Patent US9428539B2, “2β,3α,5α-trihydroxy-androst-6-one and preparation methods and use thereof” (Guangzhou Cellprotek Pharmaceutical Co., Ltd., priority 2013, dated 2016)

How the values were obtained:
[1] = system: LN18 cells; test: MTT cell survival assay, LN18 cells; assay type: cell-based; settings: 250, 500, 1000 μM, 24 h post treatment, P<0.05 vs control
Procedure: (§1) Cell seeding and treatment: Logarithmic phase of LN18 and DBTRG-50MG cells were prepared to cell suspensions with complete medium. Cells were seeded into a 96-well plate at a density of 100 μl per well, 3×10^4/ml. 12 h post seeding, full cell adherence was observed. To the wells was added YC-10 to a final concentration of YC-10 being 250, 500, and 1000 μM, with each concentration group having 5 repeats.
(§2) Reaction of MTT with succinate dehydrogenase: At 24th h of culturing, 10 μl (5 mg/ml) of MTT was added to each well, followed by 4 h incubation. At this time, granulate violet formazan crystalline can be observed in live cells by microscopy.
(§3) Formazan particle dissolution: Supernatant was carefully discharged. To the wells was added DMSO at 100 μl/well to dissolve the crystalline. The mixture was vibrated on a mini oscillator for 5 min and measured for optical density (OD value) at 570 nm for each well by enzyme-linked immunometric assay.
(§4) Each group of experiments was repeated 3 times.
(§5) Survival (%)=OD value in treatment group/OD value in control group*100%.
(§6) All data was presented as mean±SD. SPSS 13.0 statistics package software was used. One-Way ANOVA and t-test were used to analyze the data. Sigmaplot software was used to give FIG. 1.

[2] = system: DBTRG-50MG cells; test: MTT cell survival assay, DBTRG-50MG cells; assay type: cell-based; settings: 250, 500, 1000 μM, 24 h post treatment, P<0.05 vs control
Procedure: as §1, §2, §3, §4, §5, §6

[3] = system: KM mice; test: Maximal tolerance dose test; assay type: in vivo
Procedure: YC-10 injections at concentration of 25 mg/mL were prepared with 40% hydroxypropyl cyclodextrin, and were injected through tail vein to 30 KM mice (half males and half females, weighted 18-22 g) at does of 0.1 mL/10 g.
The mice were continuously observed. All mice behaved and ate as usual, with bright coat color and fine fur. No abnormal secretions in mouth, eyes, nose, or ears were observed. Mice defecated normally. Mice weights were slighted increase. No mice died. Mice were sacrificed after 14 days, dissected and visual examined on important organs such as heart, liver, spleen, kidney, and gastrointestinal. No abnormal changes were observed.

[4] = system: cerebellar granule neurons; test: Glutamate-induced damage of cerebellar granule neurons (FDA staining); assay type: cell-based; settings: glutamate 100 μM, glycine 10 μM, Mg2+-free Locke buffer; 30 min pre-incubation; FDA staining after 24 h
Procedure: Cerebellar granule neurons cultured in vitro for 8 days were grouped. Treatment groups received MK801 or YC-10 at various concentrations, followed by incubation for 30 min. Following that, model group and all treatment groups were replaced with Mg^2+-free Locke buffer, and added with glutamate (100 μM final concentration), Glycine (10 μM final concentration) and drugs at respective concentrations. Cells were incubated at 37° C. for 30 minutes, replaced with original medium, incubated for further 24 h, followed by FDA staining.

[5] = system: cerebellar granule neurons; test: Low potassium-induced death of cerebellar granule neurons (FDA staining); assay type: cell-based; settings: 50 μM, 5K (5 mM KCl) BME medium, 24 h
Procedure: Cerebellar granule neurons were cultured in vitro for 8 days. Treatment groups received YC-10 at various concentrations and incubated for 30 min. Following that, model group and all treatment groups were replaced with 5K (i.e., 5 mM KCl) BME medium (25K BME for control group), and added with YC-10 at respective concentrations. Cells were incubated at 37° C. for 24 h, followed by FDA staining.

[6] = system: retinal ganglion cell; test: Optic nerve clamping injury model, retinal ganglion cell death; assay type: in vivo; settings: rats; 20 mg/kg via tail vein 20 min before surgery, 2 h post operation, Day 2, Day 3; pathological examination at Day 7
Procedure: 10% chloral hydrate was used to anesthetize rats. YC-10 (20 mg/kg) or solvents were administered via tail vein 20 min before surgery. Eyes were subject to topical anesthesia. Conjunctiva was cut along limbus cornea with corneal scissors and intraocular microforceps. Lateral rectus was bluntly dissected to fully expose optic nerve. A cross action forceps was used to clamp the optic nerve for 5 seconds at 2 mm posterior to the eyeball, and then released. Antibiotic eye ointment was applied post operation to prevent infection. Drugs were administered at 2 h post operation, Day 2, and Day 3. Eyeballs were obtained for pathological examination at Day 7.

[7] = system: retinal ganglion cell; test: Eye high pressure and ischemia injury model, retinal ganglion cell death; assay type: in vivo; settings: rats; 20 mg/kg via tail vein before modeling, 2 h, Day 2, Day 3; 130 mmHg, 1 h ischemia; pathological examination at Day 7
Procedure: 10% chloral hydrate was used to anesthetize rats. Eyes were subject to topical anesthesia. Perfusion apparatus was placed 176 cm above rats' eyeballs (resulting in 130 mmHg intra-ocular pressure). 30 G ½ syringe needle was carefully inserted into anterior chamber. The eyeballs became white and starting time of ischemia was recorded. 1 h post ischemia, the syringe needle was quickly withdrawn and eyes were cared by antibiotic eyedrops. Rats were raised back to cage. Drugs were administered 20 before modeling for solvent group and YC-10 group (20 mg/kg). At 2 h, Day 2 and Day 3 post modeling, rats were treated with YC-10 via tail vein. At Day 7 post modeling, eyeballs were obtained for pathological examination.

Row | SMILES | cell survival rate (tumor cell killing) [1] | cell survival rate (tumor cell killing) [2] | toxicity to mouse (behaviour, weight, organ examination) ([3]; 250 mg/kg tail vein injection in 40% hydroxypropyl cyclodextrin, observed 14 days) | mortality ([3]; 250 mg/kg tail vein injection, 14 days) | protection of cerebellar granule neurons from glutamate-induced damage [4] | protection of cerebellar granule neurons from low potassium-induced death [5] | protection of retinal ganglion cell from optic nerve clamping injury-induced death [6] | protection of retinal ganglion cell from eye high pressure and ischemia-induced death [7]
1 | C[C@@]12CCCC1C1CC(=O)[C@@]3(O)C[C@H](O)[C@@H](O)C[C@]3(C)C1CC2 (stereo partly drawn) [YC-10, 2β,3α,5α-trihydroxy-androst-6-one] | killed tumor cells in a dose-dependent manner | killed tumor cells in a dose-dependent manner | nontoxic | No mice died | effective in preventing glutamate-induced excitotoxin damage of cerebellar granule neurons in a dose-dependent manner | could prevent neuron from low potassium-induced death | slow down or prevent from clamping injury-induced death | reduce or prevent from ischemia-induced death
2 | C[C@]12N[C@H](Cc3ccccc31)c1ccccc12 [MK801, reference compound] |  |  |  |  | able to prevent cerebella granule neurons from glutamate-induced injury |  |  | 
